In patent US8563513B2, “Parathyroid hormone peptides and parathyroid hormone-related protein peptides and methods of use” (Van Andel Research Institute, priority 2009, dated 2013):
pIC50, pKd: −log10 of the molar value. Where two headings read alike, the source gives them in different places. Where no end group is shown, it is not given here.

Assays:
[1] = biological target: T1, G protein-coupled receptor (RG) conformation of PTH1R (Homo sapiens, UniProt Q03431); assay: Receptor binding assay in cell membranes, RG conformation; conditions: for IC50: n = 3, receptor co-expressed with dominant negative Gαs
T1 construct: expressed in transfected cells
T1 sequence (Q03431 27-593): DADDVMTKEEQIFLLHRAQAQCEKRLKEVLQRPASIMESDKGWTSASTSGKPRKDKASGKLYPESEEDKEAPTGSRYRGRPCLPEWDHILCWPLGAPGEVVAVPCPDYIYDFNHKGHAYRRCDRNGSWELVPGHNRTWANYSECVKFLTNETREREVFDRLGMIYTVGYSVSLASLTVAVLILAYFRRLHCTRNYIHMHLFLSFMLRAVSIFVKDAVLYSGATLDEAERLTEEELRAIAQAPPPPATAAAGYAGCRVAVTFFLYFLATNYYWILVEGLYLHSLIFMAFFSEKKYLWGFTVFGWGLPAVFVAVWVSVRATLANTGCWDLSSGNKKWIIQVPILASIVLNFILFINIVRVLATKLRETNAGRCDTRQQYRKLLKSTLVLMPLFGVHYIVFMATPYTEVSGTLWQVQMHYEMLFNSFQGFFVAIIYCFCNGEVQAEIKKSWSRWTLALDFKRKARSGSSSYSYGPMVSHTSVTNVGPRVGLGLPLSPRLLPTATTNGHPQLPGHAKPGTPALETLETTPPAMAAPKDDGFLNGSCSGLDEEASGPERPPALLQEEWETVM
Procedure: (§1) Receptor binding assay. Peptide binding to the G protein-uncoupled receptor (R0) and G protein-coupled receptor (RG) conformations in cell membranes was assessed as previously described (26).
(§2) Experimentally, the R0 conformation is studied by including GTPγS in the reactions to uncouple receptor and G protein and the RG conformation is studied by co-expressing the receptor with a dominant negative form of Gαs (23, 25).

[2] = biological target: T2, MBP-PTH1R ECD-H6 fusion protein (Homo sapiens, UniProt Q03431); assay: AlphaScreen ECD-peptide competition binding assay; conditions: for pIC50: biotinylated PTH(7-34)NH2 23 nM, MBP-PTH1R ECD 23 nM, read-out: IC50, competition of the AlphaScreen interaction; for ECD-binding (ability to compete biotin-PTH / MBP-PTH1R-ECD interaction): single point, peptide 20 μM, in words
T2 construct: fusion protein containing residues 29-187 of PTH1R fused to the C-terminus of MBP; made in house; host or cells: E. coli
T2 sequence (Q03431 29-187): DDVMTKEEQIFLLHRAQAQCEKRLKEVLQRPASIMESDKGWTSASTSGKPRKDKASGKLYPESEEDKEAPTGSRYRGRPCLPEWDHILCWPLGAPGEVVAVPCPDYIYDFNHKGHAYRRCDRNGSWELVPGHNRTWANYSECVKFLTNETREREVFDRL
Procedure: ECD-peptide binding assays. The binding of peptides to the MBP-PTH1R ECD-H6 fusion protein was assessed using an AlphaScreen assay (Perkin-Elmer). […] The pre-coupling reactions were mixed, un-labeled competitor peptides were added as indicated, and the reactions were incubated 4 to 5 hrs to reach equilibrium. Photon counts were recorded in 384-well optiplates using an Envision 2104 plate reader (Perkin-Elmer). Prism 5.0 software (GraphPad Software, San Diego) was used to fit the data to a fixed-slope dose-response inhibition equation for determination of IC50 values. Real-time analysis of the binding of peptides to the isolated PTH1R ECD using the Octet Red system (ForteBio) was performed as described in below.

[3] = biological target: T3, G protein-uncoupled receptor (R0) conformation of PTH1R (Homo sapiens, UniProt Q03431); assay: Receptor binding assay in cell membranes, R0 conformation; conditions: for R0 affinity compared to wild-type: in words; for RO/RG: ratio of R0 and RG IC50
T3 sequence (Q03431 27-593): T1 sequence (Q03431 27-593)
Procedure: as §1, §2

[4] = biological target: T1, G protein-coupled receptor (RG) conformation of PTH1R; conditions: in words, reference (26); cited from earlier work
[5] = biological target: T3, G protein-uncoupled receptor (R0) conformation of PTH1R; conditions: in words, reference (26); cited from earlier work
PTH1R ECD = biological target: T4, PTH1R ECD (Homo sapiens, UniProt Q03431); conditions: previous work (27); cited from earlier work
T4 sequence (Q03431 27-186 limits assumed): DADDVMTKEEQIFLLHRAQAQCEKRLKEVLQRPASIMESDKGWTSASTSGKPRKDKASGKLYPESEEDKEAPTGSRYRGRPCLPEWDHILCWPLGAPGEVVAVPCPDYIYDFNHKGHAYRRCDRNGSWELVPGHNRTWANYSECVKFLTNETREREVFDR

hPTH1R = biological target: T5, hPTH1R (Homo sapiens, UniProt Q03431); assay: cAMP accumulation dose-response assay in COS cells; format: cell-based
T5 construct: expressed in transfected cells; host or cells: COS-1 cells (ATCC), transient, DEAE-dextran
T5 sequence (Q03431 27-593): T1 sequence (Q03431 27-593)
Procedure: COS cells transiently expressing PTH1R were stimulated with the indicated peptides for 30 min at 37° C. after which the cells were lysed and cAMP content was assessed. […] The cells were stimulated with the indicated peptide for 10 min at room temperature, the ligand was washed out, and cAMP accumulation was assessed at the indicated times after wash out. The results are the average of duplicate samples and are normalized to the level of cAMP induced during the initial stimulation.
cAMP assays. COS-1 cells obtained from American Type Culture Collection (Manassas, Va.) were cultured in Dulbecco's modified Eagle's medium supplemented with 10% fetal bovine serum in a 37° C./5% CO2 incubator. 500,000 cells were seeded in a 10 cm dish and transfected the following morning by the DEAE-dextran method with 3 μg pcDNA3.1 vector encoding hPTH1R. Approximately 40,000 transfected cells were seeded in each well of a 96-well plate 24 hr post-transfection. 48 hrs post-transfection the cells were washed twice with PBS, pH 7.4 and stimulated with peptide. […] The reactions were stopped with cold 6% perchloric acid and the cell lysates were neutralized with KHCO3. cAMP was measured with a LANCE cAMP kit (Perkin-Elmer) according to the manufacturer's instructions. […]

[6] = read-out: IC50 Log M RG (converted)

Row | IC50 [1, 6] | RO/RG [3] | Compound | further results
1 | 0.316 nM |  | CC[C@H](C)[C@H](NC(=O)[C@H](CC(C)C)NC(=O)[C@H](CCCCN)NC(=O)[C@H](CCCNC(=N)N)NC(=O)[C@H](CC(C)C)NC(=O)[C@H](Cc1c[nH]c2ccccc12)NC(=O)[C@H](CCC(=O)O)NC(=O)[C@@H](NC(=O)[C@H](CCCNC(=N)N)NC(=O)[C@H](CCC(=O)O)NC(=O)[C@H](CCSC)NC(=O)[C@H](CO)NC(=O)[C@H](CC(N)=O)NC(=O)[C@H](CC(C)C)NC(=O)[C@H](Cc1c[nH]cn1)NC(=O)[C@H](CCCCN)NC(=O)CNC(=O)[C@H](CC(C)C)NC(=O)[C@H](CC(N)=O)NC(=O)[C@H](Cc1c[nH]cn1)NC(=O)[C@H](CCSC)NC(=O)[C@H](CC(C)C)NC(=O)[C@H](CCC(N)=O)NC(=O)[C@@H](NC(=O)[C@H](CCC(=O)O)NC(=O)[C@H](CO)NC(=O)[C@@H](NC(=O)[C@@H](N)CO)C(C)C)[C@@H](C)CC)C(C)C)C(=O)N[C@@H](CCC(N)=O)C(=O)N[C@@H](CC(=O)O)C(=O)N[C@H](C(=O)N[C@@H](Cc1c[nH]cn1)C(=O)N[C@@H](CC(N)=O)C(=O)N[C@@H](Cc1ccccc1)C(N)=O)C(C)C [K27L/L28I] | 
2 |  |  | CC[C@H](C)[C@H](NC(=O)[C@H](CC(C)C)NC(=O)[C@H](Cc1c[nH]cn1)NC(=O)[C@H](Cc1c[nH]cn1)NC(=O)[C@H](CC(C)C)NC(=O)[C@H](Cc1ccccc1)NC(=O)[C@H](Cc1ccccc1)NC(=O)[C@H](CCCNC(=N)N)NC(=O)[C@H](CCCNC(=N)N)NC(=O)[C@H](CCCNC(=N)N)NC(=O)[C@H](CC(C)C)NC(=O)[C@H](CC(=O)O)NC(=O)[C@H](CCC(N)=O)NC(=O)[C@@H](NC(=O)[C@H](CO)NC(=O)[C@H](CCCCN)NC(=O)CN)[C@@H](C)CC)C(=O)N[C@@H](C)C(=O)N[C@@H](CCC(=O)O)C(=O)N[C@H](C(=O)N[C@@H](Cc1c[nH]cn1)C(=O)N[C@H](C(=O)N[C@@H](C)C(=O)O)[C@@H](C)O)[C@@H](C)CC [PTHrP(12-34)OH, reference compound] | pIC50 [2]: ~5.70
3 | 0.0794 nM | 586 | AVSEHQLLHDKGKSIQDLRRRFWLHHKLAEVHTA-NH2 [F23W/L27K/I28L/I31V] | R0 affinity compared to wild-type [3]: slightly decreased R0 affinity
4 |  |  | GKHLNSMERVEWLRKKLQDVHNF-NH2 [PTH(12-34)NH2, reference compound] | pIC50 [2]: ~6.00
5 |  |  | PTH(1-28): PTH fragment 1-28, literature peptide (26) (SVSEIQLMHNLGKHLNSMERVEWLRKKL; Parathyroid hormone; UniProt P01270 32-59, looked up, fragment) | RG affinity compared to PTH(1-34) [4]: diminished RG affinity; RG-selectivity compared to PTH(1-34) [5]: more RG-selective
6 |  |  | PTH(15-34)NH2: C-terminally amidated 15-34 fragment of PTH (LNSMERVEWLRKKLQDVHNF-NH2) | pKd (PTH1R ECD): ~6.00
7 |  | 190 | SVSEIQLMHNLGKHLNSMERVEFLRKKIQDVHNF-NH2 [W23F/L28I] | IC50 ([1]; read-out: IC50 (nM) RG): 0.2 nM
8 | 0.2 nM | 59 | SVSEIQLMHNLGKHLNSMERVEFLRKKLQDVHNF-NH2 [W23F] | 
9 | 0.631 nM | 68 | SVSEIQLMHNLGKHLNSMERVEFLRKLIQDIHNF-NH2 [W23F/K27L/L28I/V31I] | 
10 | 0.251 nM | 26.4 | SVSEIQLMHNLGKHLNSMERVEFLRKLLQDVHNF-NH2 [W23F/K27L] | 
11 | 0.251 nM | 135 | SVSEIQLMHNLGKHLNSMERVEWLRKKIQDIHNF-NH2 [L28I/V31I] | IC50 ([1]; read-out: IC50 (nM) RG): 0.31 nM
12 |  | 45 | SVSEIQLMHNLGKHLNSMERVEWLRKKIQDVHNF-NH2 [L28I] | IC50 ([1]; read-out: IC50 (nM) RG): 0.1 nM; IC50 ([3]; n = 3, GTPγS to uncouple receptor and G protein, read-out: IC50 Log M RO (converted)): 3.98 nM
13 | 0.251 nM | 110 | SVSEIQLMHNLGKHLNSMERVEWLRKKLQDIHNF-NH2 [V31I] | IC50 ([1]; read-out: IC50 (nM) RG): 0.31 nM
14 | 0.501 nM | 36.8 | SVSEIQLMHNLGKHLNSMERVEWLRKLLQDIHNF-NH2 [K27L/V31I] | 
15 |  | 11.9 | SVSEIQLMHNLGKHLNSMERVEWLRKLLQDVHNF-NH2 [K27L] | 
16 |  |  | quadruply mutant PTHrP peptide: PTHrP(12-34)NH2 scaffold with swaps at all four positions 23′, 27′, 28′, 31′ (GKSIQDLRRRFWLHHKLAEVHTA-NH2) | ECD-binding (ability to compete biotin-PTH / MBP-PTH1R-ECD interaction) [2]: normal binding to the ECD

Row | Compound | IC50 [1, 6] | RO/RG [3] | further results
17 | SVSEIQLMHNLGKHLNSMERVEFLRKKLQDIHNF-NH2 [W23F/V31I] |  | 386 | RG affinity compared to wild-type ([1]; in words): normal RG affinity; ECD-binding (ability to compete biotin-PTH / MBP-PTH1R-ECD interaction) [2]: poor ECD-binding; maximal cAMP levels relative to those obtained with the wt peptides (hPTH1R; COS cells transiently expressing PTH1R): ~80%; potency of cAMP response compared to wt peptides (hPTH1R; in words): essentially the same as the wt peptides; R0 affinity compared to wild-type [3]: dramatically reduced R0 affinity
